Experimental data as given in patent US20240115549A1, “TREATMENT OF MENTAL DISORDERS” (GH Research Ireland Limited, priority 2022, published 2024).

How the values were obtained:
[1] = tested on: Escherichia coli WP2 uvrA pKM101; assay: Bacterial mutation test, Escherichia coli; type: cell-based; details: up to 5000 pg/plate, with and without S-9
Source text: (§1) These conditions included treatments at concentrations up to […] (the maximum recommended concentration according to current regulatory guidelines), in the absence and in the presence of a rat liver metabolic activation system (S-9).

[2] = tested on: Salmonella typhimurium TA98, TA100, TA1535 and TA1537; assay: Bacterial mutation test, Salmonella typhimurium; type: cell-based; details: up to 5000 μg/plate, with and without S-9
Source text: as §1

## COc1ccc2[nH]cc(CCN(C)C)c2c1 [5-MeO-DMT]
[1]
  Induction of mutation: did not induce mutation
[2]
  Induction of mutation: did not induce mutation
